Molecules are shown by their SMILES. Read-outs that look alike come from different tables or passages of the source.

Consider 21 compounds from US6342511B1, “Phencyclidine derivatives, preparation method and pharmaceutical compositions containing same” (Societe de Conseils de Recherches et d'Applications …, priority 1977, dated 2002).

Common to all, as to format: binding
The target of one test is PCP3 sites. The experiment in a line: [3H]TCP displacement, cerebellum membranes, 2-site model, PCP3. To be noted: [3H]TCP 2.5 nM, rat cerebellum. How it is done:
(§1) The affinity of the compounds for their potential bond site, can be evaluated by quantifying their ability to displace a specific tritiated label of a given site. The bond experiences are carried out by competition between the molecule to be tested and the appropriate radioligand on a membrane preparation rich in sites to be studied. The concentration of the derivative tested which inhibits 50% of the bond of the radioligand to the receptor is called IC50.
(§2) For the experimental conditions and membrane preparation techniques used, reference can be made to the literature (Brain Res., 378, 133-141 (1986); Eur. J. Pharm., 81, 531-542 (1982)).
(§3) For low affinity sites, the monosite treatment used led to incoherent results. The experimental data have therefore been reprocessed using non-linear regression (Marquardt-Levenberg algorithm) with Sigma Plot software (Jandel) according to a model with two noted sites of interaction PCP2 and PCP3. This processing proves to be more suitable than a monosite treatment (Student test: p<0.05) over a set of 3 to 4 experiments for each compound tested. Over all the experiments, the two site populations are found in a relative proportion to 68.0% (±1.5) for the PCP2 sites and 31.2% (±1.5) for the PCP3 sites.
(§4) For the PCP2 and PCP3 sites, the preparation originates from rat cerebella. Not having a specific label, only [^3H]TCP can be used. A more significant concentration of tritiated ligand (2.5 nM versus 1 nM in the cortex) is used to ensure that all the PCP2 and PCP3 sites are occupied.

The target of the next test is PCP2 sites. The experiment in a line: [3H]TCP displacement, cerebellum membranes, 2-site model, PCP2. To be noted: [3H]TCP 2.5 nM, rat cerebellum. How it is done: as §1, §2, §3, §4
A further test concerns the target T1, PCP1 sites (Rattus norvegicus, UniProt P35439).
T1 construct: membrane preparations originating from anterior cerebrum homogenates of rats; from tissue; host or cells: rat anterior cerebrum (forebrain/cortex) membranes
Briefly: [3H]TCP displacement, cortex membranes, 1-site model. The following applies: for cortex 1 site nH: Hill number of the cortex displacement curve. The procedure:
The affinity of the compounds for their potential bond site, can be evaluated by quantifying their ability to displace a specific tritiated label of a given site. The bond experiences are carried out by competition between the molecule to be tested and the appropriate radioligand on a membrane preparation rich in sites to be studied.
For the PCP1 sites, the tritiated label used is [^3H]TCP and the tests are carried out on membrane preparations originating from anterior cerebrum homogenates of rats.

The target in a further test is T2, PCP receptors (Rattus norvegicus, UniProt P35439).
T2 construct: membrane preparations originating from cerebral cortex of a rat; from tissue; host or cells: rat cerebral cortex membranes
The experiment in a line: Percentage inhibition on PCP receptors ([3H]TCP, cerebral cortex membranes). The following applies: compound 10 μM. The procedure: Percentage inhibition on PCP receptors:
The tritiated label used is [^3H]TCP and the tests are carried out on membrane preparations originating from cerebral cortex of a rat (Brain Res., 378, 133-141 (1986).

[1] abbreviates: [3H]TCP 1 nM, rat cortex (anterior cerebrum) membranes, read-out: cortex 1 site IC50.
Where [2] appears, read: cortex 1 site IC50, [3H]TCP 1 nM, rat cortex membranes, bound in μM.
Setting [3] is: cortex 1 site IC50, [3H]TCP 1 nM, rat cortex (anterior cerebrum) membranes.

In the case of `CC1CCCN(C2(c3cccs3)CCSCC2)C1` (racemic) [Ex 2, (±)-N-[4-(2-thienyl)-tetrahydro-4H-thiopyran-4-yl]-3-methyl-piperidine], the IC50 at PCP3 sites (two-site non-linear regression) came to 2.85 µM; on PCP2 sites (two-site non-linear regression), 0.265 µM; at PCP1 sites (setting [1]), 0.132 µM. The “cortex 1 site nH” value on PCP1 sites stood at 1.14.

Regarding `CC1CCCN(C2(c3cc4ccccc4s3)CCSCC2)C1` (racemic) [Ex 5, (±)-N-[4-(2-benzothiophenyl)-tetrahydro-4H-thiopyran-4-yl]-3-methyl-piperidine], the figures for the IC50 on PCP3 sites (two-site non-linear regression), at PCP2 sites (bound in μM) and at PCP1 sites (setting [2]) were 0.581 µM, greater than 100 µM and greater than 100 µM, respectively.

On to `CC1CCCN(C2(c3cccs3)CCCCC2)C1` (racemic) [Ex 22 (±), N-[1-(2-thienyl)-cyclohexan-1-yl]-3-methyl piperidine], for which the figures for the IC50 at PCP3 sites (two-site non-linear regression), at PCP2 sites (two-site non-linear regression) and on PCP1 sites (setting [3]) were 1.45 µM, 0.0473 µM and 0.0055 µM, respectively. Also, on PCP1 sites, the “cortex 1 site nH” value is given as 1.09.

Turning to `CC1CSCCC1(c1cccs1)N1CCCCC1` (single isomer, unassigned) [Ex 1 (majority), N-[4-(2-thienyl)-3-methyl-tetrahydro-4H-thiopyran-4-yl] piperidine], the “cortex 1 site nH” value at PCP1 sites turned out to be 0.94. Also, at PCP1 sites (setting [3]), the IC50 was 17.2 µM.

For the compound `CC1CSCCC1(c1cccs1)N1CCCCC1` (single isomer, unassigned) [Ex 1 (minority), N-[4-(2-thienyl)-3-methyl-tetrahydro-4H-thiopyran-4-yl] piperidine], the IC50 on PCP3 sites (two-site non-linear regression) stood at 0.0176 µM; on PCP2 sites (two-site non-linear regression), 1.35 µM; on PCP1 sites (setting [3]) it was 0.0268 µM. For the same compound, the “cortex 1 site nH” value on PCP1 sites was found to be 0.89.

Turning to `CC1CCCN(C2(c3cccs3)CCCCC2)C1` (single isomer, unassigned) [Ex 22 (+), N-[1-(2-thienyl)-cyclohexan-1-yl]-3-methyl piperidine], the IC50 was found to be 0.808 µM on PCP3 sites (two-site non-linear regression), 0.0283 µM at PCP2 sites (two-site non-linear regression) and 0.0052 µM at PCP1 sites (setting [3]). The “cortex 1 site nH” value at PCP1 sites was found to be 1.04.

As to `CC1CCCN(C2(c3cccs3)CCCCC2)C1` (single isomer, unassigned) [Ex 22 (−), N-[1-(2-thienyl)-cyclohexan-1-yl]-3-methyl piperidine], the “cortex 1 site nH” value at PCP1 sites was 1.08. Besides, the IC50 on PCP1 sites (setting [3]) worked out at 0.158 µM.

`C[C@@H]1CCCN(C2(c3cccs3)CCSCC2)C1` [Ex 4, R-(+)-N-[4-(2-thienyl)-tetrahydro-4H-thiopyran-4-yl]-3-methyl-piperidine]: the IC50 came out at 2.08 µM on PCP3 sites (two-site non-linear regression), 0.0532 µM on PCP2 sites (two-site non-linear regression) and 0.024 µM at PCP1 sites (setting [1]). In addition, the “cortex 1 site nH” value at PCP1 sites came out at 0.84.

In the case of `C[C@@H]1CCCN(C2(c3cc4ccccc4s3)CCSCC2)C1` [Ex 6, R-(+)-N-[4-(2-benzothiophenyl)-tetrahydro-4H-thiopyran-4-yl]-3-methyl-piperidine], the IC50 at PCP3 sites (two-site non-linear regression) was 0.28 µM; at PCP2 sites (bound in μM), greater than 100 µM; at PCP1 sites (setting [2]), greater than 100 µM.

As to `C[C@H]1CCCN(C2(c3cc4ccccc4s3)CCSCC2)C1` [Ex 7, S-(−)-N-[4-(2-benzothiophenyl)-tetrahydro-4H-thiopyran-4-yl]-3-methyl-piperidine], the IC50 turned out to be 0.639 µM on PCP3 sites (two-site non-linear regression), 84 µM at PCP2 sites (two-site non-linear regression) and 82.8 µM on PCP1 sites (setting [3]). For the same compound, at PCP1 sites, the “cortex 1 site nH” value was 0.73.

As to `OCC1CCCN(C2(c3cccs3)CCCCC2)C1` (stereo not drawn) [Ex 8, N-[1-(2-thienyl)-cyclohexan-1-yl]-3-hydroxymethyl-piperidine], the values for the IC50 on PCP3 sites (two-site non-linear regression), at PCP2 sites (two-site non-linear regression) and at PCP1 sites (setting [1]) were 0.0124 µM, 2.24 µM and 0.0284 µM, respectively. Further, on PCP1 sites, the “cortex 1 site nH” value stood at 0.96.

In turn, `c1coc(C2(N3CCCCC3)CCSCC2)c1` [Ex 9, N-[4-(2-furyl)-tetrahydro-4H-thiopyran-4-yl]-piperidine] had an inhibition at 10 µM against PCP receptors of 96%. The IC50 on PCP3 sites (two-site non-linear regression) amounted to 0.0138 µM; on PCP2 sites (two-site non-linear regression) it was 1.02 µM; on PCP1 sites (setting [1]) it was 0.133 µM. Also, on PCP1 sites, the “cortex 1 site nH” value was found to be 0.87.

Regarding `c1ccc2oc(C3(N4CCCCC4)CCSCC3)cc2c1` [Ex 10, N-[4-(2-benzofuryl)-tetrahydro-4H-thiopyran-4-yl]-piperidine], testing at 10 µM against PCP receptors gave an inhibition of 18%. Also, the results for the half-inhibitory concentration (IC50) on PCP3 sites (two-site non-linear regression), at PCP2 sites (two-site non-linear regression) and at PCP1 sites (setting [1]) were 0.0591 µM, 26.6 µM and 27.5 µM, respectively. Besides, the “cortex 1 site nH” value on PCP1 sites is reported as 0.9.

Consider `Cc1ccc(C2(N3CCCCC3)CCSCC2)s1` [Ex 11, N-[4-(5-methyl-thiophen-2-yl)-tetrahydro-4H-thiopyran-4-yl]-piperidine], for which the IC50 on PCP3 sites (bound in μM) was greater than 100 µM; on PCP2 sites (two-site non-linear regression), 0.532 µM; at PCP1 sites (setting [1]) it was 0.462 µM. Also, on PCP1 sites, the “cortex 1 site nH” value is reported as 0.97.

Turning to `Cc1csc(C2(N3CCCCC3)CCSCC2)c1` [Ex 12, N-[4-(4-methyl-thiophen-2-yl)-tetrahydro-4H-thiopyran-4-yl]-piperidine], the results for the IC50 at PCP3 sites (two-site non-linear regression), at PCP2 sites (two-site non-linear regression) and at PCP1 sites (setting [1]) were 0.0054 µM, 0.772 µM and 0.0778 µM, respectively. In addition, on PCP1 sites, the “cortex 1 site nH” value amounted to 0.93.

For the compound `CCNC1(c2cccs2)CCCCC1` [Ex 17, N-ethyl-1-(2-thienyl)-cyclohexylamine], the IC50 on PCP3 sites (two-site non-linear regression) was determined as 47.6 µM; on PCP2 sites (two-site non-linear regression) it was 0.055 µM; on PCP1 sites (setting [3]) it was 0.0209 µM. Also, the “cortex 1 site nH” value at PCP1 sites was 0.77.

Regarding `c1coc(C2(N3CCCCC3)CCCCC2)c1` [Ex 18, N-[1-(2-furyl)-cyclohexan-1-yl] piperidine], the values for the IC50 at PCP3 sites (two-site non-linear regression), on PCP2 sites (two-site non-linear regression) and on PCP1 sites (setting [1]) were 0.0056 µM, 0.187 µM and 0.0078 µM, respectively. For the same compound, on PCP1 sites, the “cortex 1 site nH” value is 0.83.

Regarding `c1csc(C2(N3CCCCC3)CCSCC2)c1` [Ex 19, N-[4-(2-thienyl)-tetrahydro-4H-thiopyran-4-yl] piperidine], the half-maximal inhibitory concentration (IC50) on PCP3 sites (two-site non-linear regression) stood at 0.0085 µM; on PCP2 sites (two-site non-linear regression), 0.586 µM; at PCP1 sites (setting [1]), 0.0716 µM. In addition, the “cortex 1 site nH” value at PCP1 sites was 1.05.

On to `c1csc(C2(N3CCCCC3)CCOCC2)c1` [Ex 20, N-[4-(2-thienyl)-tetrahydro-4H-pyran-4-yl] piperidine], for which the IC50 came to 0.035 µM on PCP3 sites (two-site non-linear regression), 5.84 µM on PCP2 sites (two-site non-linear regression) and 1.22 µM on PCP1 sites (setting [1]). Besides, the “cortex 1 site nH” value on PCP1 sites stood at 0.98.

Take `c1csc(C2(N3CCCCC3)CCCSC2)c1` (stereo not drawn) [Ex 21, N-[3-(2-thienyl)-tetrahydro-4H-thiopyran-3-yl] piperidine]: the IC50 was 0.008 µM at PCP3 sites (two-site non-linear regression), 0.659 µM at PCP2 sites (two-site non-linear regression) and 0.0734 µM at PCP1 sites (setting [1]). On PCP1 sites, the “cortex 1 site nH” value was determined as 1.00.

For `c1csc(C2(N3CCCCC3)CCCCC2)c1` [TCP, N-(1-(2-thienyl)cyclohexyl)piperidine, reference compound], the values for the IC50 on PCP3 sites (two-site non-linear regression) and on PCP2 sites (two-site non-linear regression) were 3.72 µM and 0.059 µM, respectively.
